According to patent US7705022B2, “IDO inhibitors and methods of use thereof” (Lankenau Institute for Medical Research, priority 2005, dated 2010):

Columns and labels:
human IDO = human IDO (Homo sapiens, UniProt P14902); assay: IDO inhibition assay (formation of kynurenine, read at 490 nm); type: biochemical; conditions: for Ki (IDO inhibition data) / Ki: average of two or three trials, inhibitors tested at 200 and 400 μM, L-Trp 200 to 25 μM, N.I. = no inhibition detected
IDO = conditions: cited from earlier work; for type of IDO inhibition: literature

human IDO, sequence (P14902 whole entry): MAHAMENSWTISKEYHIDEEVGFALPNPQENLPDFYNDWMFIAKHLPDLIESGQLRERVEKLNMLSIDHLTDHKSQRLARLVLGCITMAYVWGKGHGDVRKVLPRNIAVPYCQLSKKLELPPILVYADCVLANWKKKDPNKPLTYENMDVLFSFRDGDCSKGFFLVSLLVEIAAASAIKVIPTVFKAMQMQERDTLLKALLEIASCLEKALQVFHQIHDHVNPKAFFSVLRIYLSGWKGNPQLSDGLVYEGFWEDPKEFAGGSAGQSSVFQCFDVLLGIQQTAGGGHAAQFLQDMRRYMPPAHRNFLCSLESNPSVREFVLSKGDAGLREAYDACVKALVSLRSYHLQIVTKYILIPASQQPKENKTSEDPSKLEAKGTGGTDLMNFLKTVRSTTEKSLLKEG

Compound: CSC(=O)NCc1c[nH]c2ccccc12 [Compound 21, Brassitin, reference compound]
- IDO inhibitory activity in words (human IDO): complete loss in inhibitory activity
- Ki (IDO inhibition data) (human IDO): N.I.

Compound: CSC(=S)NCCc1ccccc1 [Compound 9, N-Phenethyl-S-methyl-dithiocarbamate]
- IDO inhibitory activity in words (human IDO): significant inhibitory activity
- Ki (human IDO): 62.4 µM

Compound: c1ccc2c(c1)[nH]c1cnccc12 [β-carboline]
- type of IDO inhibition (IDO): non-competitive

Compound: N-(Adamant-2-yl)-S-methyl-dithiocarbamate [Compound 6]
- Ki (human IDO): 180 µM

Compound: CNC(=S)NCc1c[nH]c2ccccc12 [Compound 19, N-[l-(Indol-3-yl)methyl]-N′-methyl-thiourea]
- IDO inhibitory activity in words (human IDO): weaker or no inhibition
- Ki (IDO inhibition data) (human IDO): N.I.^a
- melting point: 148 to 150 °C

Compound: CCCCc1cc2c(cn1)[nH]c1ccccc12 [3-butyl-β-carboline]
- Ki (IDO; literature value): 3.3 µM
- type of IDO inhibition (IDO): non-competitive

Compound: S=C(S)N1CCCC1 [pyrrolidine dithiocarbamate]
- effect on IDO in words (IDO; literature report): inhibits IDO
